# pIC50: −log10 of the molar value.
# Tests used:
# [1] = system: HCT116 and MDA-MB-231 cell lines; assay: Growth inhibition assay, both cancer cell lines; format: cell-based; conditions: Homo sapiens, 72 h, read-out: growth inhibition IC50
# [2] = Metal chelation by UV spectroscopy, Fe3+; format: physicochemical; conditions: 100 µM E-3a, 10 mM ammonium acetate pH 7.0, anaerobic, metal 100 µM-5 mM
# [3] = system: normal mobilized peripheral blood progenitor cells; conditions: cited from earlier work
pIC50 [1],chelation of Fe^3+ [2],SMILES,cytotoxicity against normal cells [3]
7.00 to 7.52,,Nc1ccn([C@@H]2O[C@H](CO)[C@@H](O)C2(F)F)c(=O)n1 [gemcitabine],
,does not chelate Fe^3+ ions,"O=C(N/N=C/c1c(O)ccc2ccccc12)c1ccccc1O [E-3a, 2-hydroxy-N'-((2-hydroxynaphthalen-1-yl)methylene)benzohydrazide]",little cytotoxicity

# Reference: PMC5808567 (Journal of medicinal chemistry, 2018)
